Measured values as given in ChEMBL document CHEMBL3112509, “Synthesis and antimicrobial activity of (1,4-phenylene)bis(arylsulfonylpyrazoles and isoxazoles)” (2014).
Converted amounts (≈) assume the structure as drawn.

Legend:
Format in all cases: functional
[1] = test system: Klebsiella pneumoniae; assay: Antibacterial activity against Klebsiella pneumoniae at 50 ug/well after 24 hrs by agar well diffusion method; settings: read-out: DIZ
[2] = test system: Aspergillus niger; assay: Antifungal activity against Aspergillus niger at 50 ug/well after 48 hrs by agar well diffusion method; settings: read-out: DIZ
[3] = test system: Bacillus subtilis; assay: Antibacterial activity against Bacillus subtilis at 100 ug/well after 24 hrs by agar well diffusion method; settings: read-out: DIZ
[4] = test system: Staphylococcus aureus; assay: Antibacterial activity against Staphylococcus aureus at 100 ug/well after 24 hrs by agar well diffusion method; settings: read-out: DIZ
[5] = test system: Penicillium chrysogenum; assay: Antifungal activity against Penicillium chrysogenum at 100 ug/well after 48 hrs by agar well diffusion method; settings: read-out: DIZ
[6] = test system: Pseudomonas aeruginosa; assay: Antibacterial activity against Pseudomonas aeruginosa at 100 ug/well after 24 hrs by agar well diffusion method; settings: read-out: DIZ
[7] = test system: Staphylococcus aureus; assay: Antibacterial activity against Staphylococcus aureus after 24 hrs
[8] = test system: Bacillus subtilis; assay: Antibacterial activity against Bacillus subtilis at 50 ug/well after 24 hrs by agar well diffusion method; settings: read-out: DIZ
[9] = test system: Pseudomonas aeruginosa; assay: Antibacterial activity against Pseudomonas aeruginosa at 50 ug/well after 24 hrs by agar well diffusion method; settings: read-out: DIZ
[10] = test system: Penicillium chrysogenum; assay: Antifungal activity against Penicillium chrysogenum after 48 hrs by broth dilution test
[11] = test system: Pseudomonas aeruginosa; assay: Antibacterial activity against Pseudomonas aeruginosa after 24 hrs by broth dilution test
[12] = test system: Bacillus subtilis; assay: Antibacterial activity against Bacillus subtilis after 24 hrs by broth dilution test
[13] = test system: Klebsiella pneumoniae; assay: Antibacterial activity against Klebsiella pneumoniae after 24 hrs by broth dilution test
[14] = test system: Aspergillus niger; assay: Antifungal activity against Aspergillus niger after 48 hrs by broth dilution test
[15] = test system: Klebsiella pneumoniae; assay: Antibacterial activity against Klebsiella pneumoniae after 24 hrs
[16] = test system: Aspergillus niger; assay: Antifungal activity against Aspergillus niger at 100 ug/well after 48 hrs by agar well diffusion method; settings: read-out: DIZ
[17] = test system: Aspergillus niger; assay: Antifungal activity against Aspergillus niger after 48 hrs
[18] = test system: Klebsiella pneumoniae; assay: Antibacterial activity against Klebsiella pneumoniae at 100 ug/well after 24 hrs by agar well diffusion method; settings: read-out: DIZ
[19] = test system: Bacillus subtilis; assay: Antibacterial activity against Bacillus subtilis after 24 hrs
[20] = test system: Staphylococcus aureus; assay: Antibacterial activity against Staphylococcus aureus after 24 hrs by broth dilution test
[21] = test system: Penicillium chrysogenum; assay: Antifungal activity against Penicillium chrysogenum after 48 hrs
[22] = test system: Penicillium chrysogenum; assay: Antifungal activity against Penicillium chrysogenum at 50 ug/well after 48 hrs by agar well diffusion method; settings: read-out: DIZ
[23] = test system: Pseudomonas aeruginosa; assay: Antibacterial activity against Pseudomonas aeruginosa after 24 hrs
[24] = test system: Staphylococcus aureus; assay: Antibacterial activity against Staphylococcus aureus at 50 ug/well after 24 hrs by agar well diffusion method; settings: read-out: DIZ

Structure (SMILES) | MIC [10] [µg/mL] | MIC [11] [µg/mL] | MIC [12] [µg/mL] | MIC [13] [µg/mL] | MIC [14] [µg/mL] | zone of inhibition at 50 µg/disc [1] [mm] | zone of inhibition at 50 µg/disc [2] [mm] | zone of inhibition at 100 µg/disc [3] [mm] | zone of inhibition at 100 µg/disc [4] [mm] | zone of inhibition at 100 µg/disc [5] [mm] | zone of inhibition at 100 µg/disc [6] [mm] | MBC [7] [µg/mL] | zone of inhibition at 50 µg/disc [8] [mm] | zone of inhibition at 50 µg/disc [9] [mm] | MBC [15] [µg/mL] | zone of inhibition at 100 µg/disc [16] [mm] | MFC [17] [µg/mL] | zone of inhibition at 100 µg/disc [18] [mm] | MBC [19] [µg/mL] | zone of inhibition at 50 µg/disc [22] [mm] | further results
Cc1ccc(S(=O)(=O)c2c(-c3ccc(Cl)cc3)noc2-c2ccc(-c3onc(-c4ccc(Cl)cc4)c3S(=O)(=O)c3ccc(C)cc3)cc2)cc1 | 25 (≈ 33.7 µM) | 50 (≈ 67.4 µM) | 25 (≈ 33.7 µM) | 100 (≈ 135 µM) | 50 (≈ 67.4 µM) | 26 | 28 | 36 | 32 | 34 | 24 | 200 (≈ 270 µM) | 33 | 22 | > 200 | 30 | > 200 | 28 | 100 (≈ 135 µM) | 32 | MIC [20]: 50 µg/mL (≈ 67.4 µM); MFC [21]: 100 µg/mL (≈ 135 µM); MBC [23]: > 200 µg/mL; zone of inhibition at 50 µg/disc [24]: 30 mm
CC(=O)N1CCN(c2ccc(OCC3COC(Cn4ccnc4)(c4ccc(Cl)cc4Cl)O3)cc2)CC1 (configuration not stated) [KETOCONAZOLE] | 12.5 (≈ 23.5 µM) | – | – | – | 6.25 (≈ 11.8 µM) | – | 33 | – | – | 38 | – | – | – | – | – | 36 | – | – | – | 36 | –

More lines, main results first:

MIC [10] [µg/mL] | MIC [11] [µg/mL] | MIC [12] [µg/mL] | MIC [13] [µg/mL] | MIC [14] [µg/mL] | Structure (SMILES) | zone of inhibition at 50 µg/disc [1] [mm] | zone of inhibition at 50 µg/disc [2] [mm] | zone of inhibition at 100 µg/disc [3] [mm] | zone of inhibition at 100 µg/disc [4] [mm] | zone of inhibition at 100 µg/disc [5] [mm] | zone of inhibition at 100 µg/disc [6] [mm] | MBC [7] [µg/mL] | zone of inhibition at 50 µg/disc [8] [mm] | zone of inhibition at 50 µg/disc [9] [mm] | MBC [15] [µg/mL] | zone of inhibition at 100 µg/disc [16] [mm] | MFC [17] [µg/mL] | zone of inhibition at 100 µg/disc [18] [mm] | MBC [19] [µg/mL] | zone of inhibition at 50 µg/disc [22] [mm] | further results
25 (≈ 26.8 µM) | 50 (≈ 53.6 µM) | 50 (≈ 53.6 µM) | 100 (≈ 107 µM) | 50 (≈ 53.6 µM) | O=S(=O)(c1ccc(Cl)cc1)c1c(-c2ccc(Cl)cc2)nn(-c2ccccc2)c1-c1ccc(-c2c(S(=O)(=O)c3ccc(Cl)cc3)c(-c3ccc(Cl)cc3)nn2-c2ccccc2)cc1 | 25 | 34 | 34 | 31 | 31 | 22 | > 200 | 32 | 20 | > 200 | 37 | > 200 | 27 | 200 (≈ 214 µM) | 28 | MIC [20]: 50 µg/mL (≈ 53.6 µM); MFC [21]: > 100 µg/mL; MBC [23]: > 200 µg/mL; zone of inhibition at 50 µg/disc [24]: 29 mm
25 (≈ 35 µM) | 50 (≈ 70.1 µM) | 25 (≈ 35 µM) | 100 (≈ 140 µM) | 50 (≈ 70.1 µM) | O=S(=O)(c1ccccc1)c1c(-c2ccc(Cl)cc2)noc1-c1ccc(-c2onc(-c3ccc(Cl)cc3)c2S(=O)(=O)c2ccccc2)cc1 | 28 | 29 | 37 | 33 | 36 | 26 | 200 (≈ 280 µM) | 35 | 24 | > 200 | 31 | 200 (≈ 280 µM) | 30 | 50 (≈ 70.1 µM) | 34 | MIC [20]: 50 µg/mL (≈ 70.1 µM); MFC [21]: 100 µg/mL (≈ 140 µM); MBC [23]: 200 µg/mL (≈ 280 µM); zone of inhibition at 50 µg/disc [24]: 31 mm
25 (≈ 31.9 µM) | 12.5 (≈ 16 µM) | 12.5 (≈ 16 µM) | 25 (≈ 31.9 µM) | 12.5 (≈ 16 µM) | O=S(=O)(c1ccc(Cl)cc1)c1c(-c2ccc(Cl)cc2)noc1-c1ccc(-c2onc(-c3ccc(Cl)cc3)c2S(=O)(=O)c2ccc(Cl)cc2)cc1 | 32 | 30 | 38 | 34 | 37 | 27 | 50 (≈ 63.9 µM) | 35 | 25 | 100 (≈ 128 µM) | 33 | 100 (≈ 128 µM) | 34 | 25 (≈ 31.9 µM) | 35 | MIC [20]: 12.5 µg/mL (≈ 16 µM); MFC [21]: 50 µg/mL (≈ 63.9 µM); MBC [23]: 50 µg/mL (≈ 63.9 µM); zone of inhibition at 50 µg/disc [24]: 32 mm
